This is an account of results in ChEMBL document CHEMBL1201862, “PubChem BioAssay data set” (2004).

Structures are written as SMILES. Calls of active or inactive are those of the source. Bounds are passed on as bounds.

For series [1], the target named is Cytochrome P450 2C19 (Homo sapiens, UniProt P33261). As to the kind of experiment: Cytochrome panel assay with activity outcomes. Panel member name: p450-cyp2c19 Compounds with AC50 equal or less than 10 uM are considered active. Type of series: functional. Particulars: read-out: AC50.
Series [2] deals with DNA dC->dU-editing enzyme APOBEC-3G (Homo sapiens, UniProt Q9HC16). As to the kind of experiment: APOBEC3G deaminase inhibitors, SAR follow-up, biochemical, fluorescence, single-stranded DNA substrate (AID 602136). Type of series: functional. The settings on record: read-out: IC50_Mean.
In series [3] the target is Cytochrome P450 2C9 (Homo sapiens, UniProt P11712).
Series [4] deals with DNA dC->dU-editing enzyme APOBEC-3A (Homo sapiens, UniProt P31941). As to the kind of experiment: SAR analysis of small molecule inhibitors of APOBEC3A DNA Deaminase via a fluorescence-based single-stranded DNA deaminase assay. Type of series: functional. Particulars: read-out: IC50_Mean.
For series [5], the target named is Sphingosine 1-phosphate receptor 4 (Homo sapiens, UniProt O95977). Nature of the series: Late-stage fluorescence-based dose-response cell-based counterscreen assay to identify agonists of the Sphingosine 1-Phosphate Receptor 3 (S1P3): Sphingosine 1-Phosphate Receptor 4 (S1P4) agonist assay. Type of series: functional. For orientation: The purpose of a counterscreen is to sort out artefacts and off-target activity.

The target in series [6] is Sphingosine 1-phosphate receptor 2 (Homo sapiens, UniProt O95136). As to the kind of experiment: Late-stage fluorescence-based dose-response cell-based counterscreen assay to identify agonists of the Sphingosine 1-Phosphate Receptor 3 (S1P3): Sphingosine 1-Phosphate Receptor 2 (S1P2) agonist assay. Type of series: functional.
Series [7] has as its target Serine/threonine-protein kinase TAO1 (Homo sapiens, UniProt Q7L7X3). Type of series: functional.
The target in series [8] is Hepatocyte growth factor receptor (Homo sapiens, UniProt P08581). Type of series: functional.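 Further: kinase panel profiling across the kinome, with MET as the panel member.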
Sequence of Hepatocyte growth factor receptor (P08581 whole entry): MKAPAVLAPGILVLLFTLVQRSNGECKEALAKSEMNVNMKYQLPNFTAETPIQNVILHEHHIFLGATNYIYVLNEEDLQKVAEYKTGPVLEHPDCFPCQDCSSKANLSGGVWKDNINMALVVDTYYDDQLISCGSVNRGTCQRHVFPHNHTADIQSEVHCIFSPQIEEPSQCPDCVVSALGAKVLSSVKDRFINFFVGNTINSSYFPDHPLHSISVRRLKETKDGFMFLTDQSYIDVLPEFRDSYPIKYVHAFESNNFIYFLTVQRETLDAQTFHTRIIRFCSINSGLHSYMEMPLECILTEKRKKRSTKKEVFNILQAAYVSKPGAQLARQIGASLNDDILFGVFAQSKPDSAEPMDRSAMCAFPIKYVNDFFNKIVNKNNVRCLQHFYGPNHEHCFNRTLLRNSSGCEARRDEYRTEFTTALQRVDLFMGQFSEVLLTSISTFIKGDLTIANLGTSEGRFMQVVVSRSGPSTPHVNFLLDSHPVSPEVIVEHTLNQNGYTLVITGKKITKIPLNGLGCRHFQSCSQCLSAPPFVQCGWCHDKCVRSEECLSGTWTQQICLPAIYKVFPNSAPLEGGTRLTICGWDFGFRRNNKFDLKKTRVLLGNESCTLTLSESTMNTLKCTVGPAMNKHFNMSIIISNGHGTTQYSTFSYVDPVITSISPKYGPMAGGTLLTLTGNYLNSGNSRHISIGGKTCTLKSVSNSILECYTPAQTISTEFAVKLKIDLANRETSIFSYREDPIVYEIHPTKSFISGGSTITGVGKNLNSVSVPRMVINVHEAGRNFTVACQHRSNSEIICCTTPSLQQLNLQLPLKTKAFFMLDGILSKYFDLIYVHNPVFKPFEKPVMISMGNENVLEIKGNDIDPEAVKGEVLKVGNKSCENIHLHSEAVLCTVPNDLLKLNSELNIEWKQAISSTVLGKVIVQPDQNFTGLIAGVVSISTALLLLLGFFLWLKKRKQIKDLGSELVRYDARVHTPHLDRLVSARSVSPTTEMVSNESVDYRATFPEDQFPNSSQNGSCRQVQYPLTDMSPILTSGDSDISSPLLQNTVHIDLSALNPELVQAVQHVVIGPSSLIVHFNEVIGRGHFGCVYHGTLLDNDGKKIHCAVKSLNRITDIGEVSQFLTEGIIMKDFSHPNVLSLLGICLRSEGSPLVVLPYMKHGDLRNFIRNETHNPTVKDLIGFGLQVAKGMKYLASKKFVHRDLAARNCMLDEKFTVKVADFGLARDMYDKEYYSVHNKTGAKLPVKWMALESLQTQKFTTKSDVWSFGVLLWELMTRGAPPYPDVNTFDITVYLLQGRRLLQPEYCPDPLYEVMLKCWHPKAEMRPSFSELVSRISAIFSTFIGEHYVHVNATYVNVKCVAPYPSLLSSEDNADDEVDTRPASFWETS
The target in series [9] is Calcium/calmodulin-dependent protein kinase type II subunit alpha (Homo sapiens, UniProt Q9UQM7). Nature of the series: Navigating the Kinome. Panel member name: CAMK2A. Type of series: functional.
Sequence of Calcium/calmodulin-dependent protein kinase type II subunit alpha (Q9UQM7 whole entry): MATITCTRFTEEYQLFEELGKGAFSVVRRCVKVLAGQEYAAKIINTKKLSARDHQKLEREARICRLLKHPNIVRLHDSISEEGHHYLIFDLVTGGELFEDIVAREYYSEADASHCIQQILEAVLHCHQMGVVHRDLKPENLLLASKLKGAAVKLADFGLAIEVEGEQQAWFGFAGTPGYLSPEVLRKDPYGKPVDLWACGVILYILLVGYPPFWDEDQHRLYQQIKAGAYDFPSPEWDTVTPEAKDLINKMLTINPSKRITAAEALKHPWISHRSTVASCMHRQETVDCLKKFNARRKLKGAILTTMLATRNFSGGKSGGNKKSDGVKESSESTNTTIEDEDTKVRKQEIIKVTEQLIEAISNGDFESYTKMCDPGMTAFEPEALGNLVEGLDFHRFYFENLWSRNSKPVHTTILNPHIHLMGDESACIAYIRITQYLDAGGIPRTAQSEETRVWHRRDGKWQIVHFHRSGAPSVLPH
The target of series [10] is Tyrosine-protein kinase Lck (Homo sapiens, UniProt P06239). Type of series: functional.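 Further: lck was assayed as one member of a kinase panel.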
Series [11] concerns the target Aurora kinase B (Homo sapiens, UniProt Q96GD4). Type of series: functional.
The target of series [12] is Tyrosine-protein kinase Fyn (Homo sapiens, UniProt P06241). Type of series: functional.
Sequence of Tyrosine-protein kinase Fyn (P06241 whole entry): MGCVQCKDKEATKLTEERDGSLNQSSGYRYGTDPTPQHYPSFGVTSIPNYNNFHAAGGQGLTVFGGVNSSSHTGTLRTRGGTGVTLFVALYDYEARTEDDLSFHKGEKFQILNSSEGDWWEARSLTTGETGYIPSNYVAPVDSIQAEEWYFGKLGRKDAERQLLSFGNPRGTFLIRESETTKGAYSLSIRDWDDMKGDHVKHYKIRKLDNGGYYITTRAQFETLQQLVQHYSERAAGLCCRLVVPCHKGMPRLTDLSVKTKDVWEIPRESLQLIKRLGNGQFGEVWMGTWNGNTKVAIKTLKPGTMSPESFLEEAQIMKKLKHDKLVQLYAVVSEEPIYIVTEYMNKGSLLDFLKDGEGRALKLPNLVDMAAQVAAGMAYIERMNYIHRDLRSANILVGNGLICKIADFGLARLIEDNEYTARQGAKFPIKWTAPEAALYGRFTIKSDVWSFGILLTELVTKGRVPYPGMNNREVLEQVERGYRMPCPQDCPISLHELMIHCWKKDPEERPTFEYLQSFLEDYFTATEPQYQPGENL
Series [13] addresses ALK tyrosine kinase receptor (Homo sapiens, UniProt Q9UM73). Type of series: functional.
The target in series [14] is Rho-associated protein kinase 1 (Homo sapiens, UniProt Q13464). Type of series: functional.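 Further: measured within a broad kinome-wide panel profiling many kinases.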
Sequence of Rho-associated protein kinase 1 (Q13464 whole entry): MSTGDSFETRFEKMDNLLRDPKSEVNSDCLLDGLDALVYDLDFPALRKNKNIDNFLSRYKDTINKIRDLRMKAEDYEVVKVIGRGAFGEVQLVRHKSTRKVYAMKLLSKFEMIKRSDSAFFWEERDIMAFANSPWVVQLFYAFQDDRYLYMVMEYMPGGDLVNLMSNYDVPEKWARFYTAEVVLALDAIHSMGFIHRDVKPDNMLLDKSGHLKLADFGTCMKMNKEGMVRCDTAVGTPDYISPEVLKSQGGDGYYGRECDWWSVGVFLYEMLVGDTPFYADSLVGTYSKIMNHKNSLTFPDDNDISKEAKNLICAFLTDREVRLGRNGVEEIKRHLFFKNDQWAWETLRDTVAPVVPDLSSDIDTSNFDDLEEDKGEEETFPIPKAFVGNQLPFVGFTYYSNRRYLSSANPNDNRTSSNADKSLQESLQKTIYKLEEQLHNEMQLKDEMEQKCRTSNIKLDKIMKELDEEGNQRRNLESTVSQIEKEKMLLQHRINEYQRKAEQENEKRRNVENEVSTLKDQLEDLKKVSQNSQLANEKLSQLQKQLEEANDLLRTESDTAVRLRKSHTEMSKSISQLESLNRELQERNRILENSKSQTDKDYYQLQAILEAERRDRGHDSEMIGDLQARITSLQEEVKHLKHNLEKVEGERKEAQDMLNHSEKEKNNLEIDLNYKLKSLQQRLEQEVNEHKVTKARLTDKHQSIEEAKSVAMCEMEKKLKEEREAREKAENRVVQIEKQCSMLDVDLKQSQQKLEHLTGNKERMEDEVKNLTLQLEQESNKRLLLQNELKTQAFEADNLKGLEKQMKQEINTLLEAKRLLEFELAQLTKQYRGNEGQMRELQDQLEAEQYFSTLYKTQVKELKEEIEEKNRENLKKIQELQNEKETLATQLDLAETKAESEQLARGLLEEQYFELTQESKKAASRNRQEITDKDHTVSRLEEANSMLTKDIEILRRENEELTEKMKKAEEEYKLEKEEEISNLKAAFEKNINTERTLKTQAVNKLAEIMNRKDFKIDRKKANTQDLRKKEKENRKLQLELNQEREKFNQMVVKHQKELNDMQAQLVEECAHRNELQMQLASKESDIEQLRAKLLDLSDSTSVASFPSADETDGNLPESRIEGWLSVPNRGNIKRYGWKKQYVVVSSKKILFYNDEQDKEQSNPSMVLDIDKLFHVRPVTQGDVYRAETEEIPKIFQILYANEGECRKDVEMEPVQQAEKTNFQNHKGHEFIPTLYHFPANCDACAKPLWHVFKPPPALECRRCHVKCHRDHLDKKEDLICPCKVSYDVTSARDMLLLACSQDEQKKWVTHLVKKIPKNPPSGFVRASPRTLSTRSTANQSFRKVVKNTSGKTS
For series [15], the target named is Dual specificity protein kinase CLK4 (Homo sapiens, UniProt Q9HAZ1). Type of series: functional.
Series [16] concerns the target High affinity nerve growth factor receptor (Homo sapiens, UniProt P04629). Type of series: functional.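 Further: NTRK1 tested as one member of a kinome-wide profiling panel.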
Series [17] concerns the target Cyclin-dependent kinase 8 (Homo sapiens, UniProt P49336). Nature of the series: Navigating the Kinome. Panel member name: CDK8. Type of series: functional.
In series [18] the target is BDNF/NT-3 growth factors receptor (Homo sapiens, UniProt Q16620). Type of series: functional.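 Further: NTRK2 measured as one member of a broad kinome-wide kinase profiling panel.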
Sequence of BDNF/NT-3 growth factors receptor (Q16620 whole entry): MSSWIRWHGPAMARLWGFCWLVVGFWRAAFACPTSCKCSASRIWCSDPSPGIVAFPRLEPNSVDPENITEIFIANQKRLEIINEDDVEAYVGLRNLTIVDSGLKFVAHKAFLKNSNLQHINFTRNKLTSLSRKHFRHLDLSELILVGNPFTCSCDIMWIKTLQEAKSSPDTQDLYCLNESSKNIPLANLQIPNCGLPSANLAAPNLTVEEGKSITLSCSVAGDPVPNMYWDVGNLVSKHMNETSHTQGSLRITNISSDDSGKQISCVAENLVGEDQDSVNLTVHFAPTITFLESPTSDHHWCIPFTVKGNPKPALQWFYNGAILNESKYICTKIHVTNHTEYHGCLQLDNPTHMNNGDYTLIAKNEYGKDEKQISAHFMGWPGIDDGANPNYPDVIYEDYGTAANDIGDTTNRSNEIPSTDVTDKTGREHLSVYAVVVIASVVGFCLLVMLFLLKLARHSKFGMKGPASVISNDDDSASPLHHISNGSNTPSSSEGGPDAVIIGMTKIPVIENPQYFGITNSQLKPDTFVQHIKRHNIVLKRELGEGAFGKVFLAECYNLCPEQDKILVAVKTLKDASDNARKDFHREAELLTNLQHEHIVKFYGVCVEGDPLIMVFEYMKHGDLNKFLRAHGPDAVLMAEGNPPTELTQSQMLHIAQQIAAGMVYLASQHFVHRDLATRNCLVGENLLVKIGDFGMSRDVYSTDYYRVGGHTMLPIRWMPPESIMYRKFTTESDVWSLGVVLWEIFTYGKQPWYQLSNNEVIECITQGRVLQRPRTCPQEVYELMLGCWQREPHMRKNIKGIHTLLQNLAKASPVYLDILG
The target of series [19] is Platelet-derived growth factor receptor alpha (Homo sapiens, UniProt P16234). Nature of the series: Navigating the Kinome. Panel member name: PDGFRA. Type of series: functional.
Series [20] addresses Mitogen-activated protein kinase kinase kinase kinase 4 (Homo sapiens, UniProt O95819). Type of series: functional.
In series [21] the target is Casein kinase I isoform alpha (Homo sapiens, UniProt P48729). Type of series: functional.
Series [22] deals with Dual specificity mitogen-activated protein kinase kinase 1 (Homo sapiens, UniProt Q02750). Nature of the series: Navigating the Kinome. Panel member name: MAP2K1. Type of series: functional.
The target of series [23] is Insulin-like growth factor 1 receptor (Homo sapiens, UniProt P08069). As to the kind of experiment: Navigating the Kinome. Panel member name: IGF1R. Type of series: functional.
Series [24] deals with Activated CDC42 kinase 1 (Homo sapiens, UniProt Q07912). As to the kind of experiment: Navigating the Kinome. Panel member name: ACK1. Type of series: functional.
Series [25] addresses Receptor-type tyrosine-protein kinase FLT3 (Homo sapiens, UniProt P36888). Type of series: functional.
Series [26] concerns the target Dual specificity tyrosine-phosphorylation-regulated kinase 1B (Homo sapiens, UniProt Q9Y463). Nature of the series: Navigating the Kinome. Panel member name: DYRK1B. Type of series: functional.
Series [27] concerns the target Serine/threonine-protein kinase Nek2 (Homo sapiens, UniProt P51955). Type of series: functional.
Series [28] concerns the target Dual specificity protein kinase CLK2 (Homo sapiens, UniProt P49760). Type of series: functional.
For series [29], the target named is Fibroblast growth factor receptor 1 (Homo sapiens, UniProt P11362). Type of series: functional.
The target in series [30] is Glycogen synthase kinase-3 alpha (Homo sapiens, UniProt P49840). Type of series: functional.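 Further: GSK3A result taken from a broad kinome-wide kinase panel.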
In series [31] the target is 5'-AMP-activated protein kinase catalytic subunit alpha-1 (Homo sapiens, UniProt Q13131). Type of series: functional.
Series [32] has as its target Serine/threonine-protein kinase D3 (Homo sapiens, UniProt O94806). Type of series: functional.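 Further: determined within a kinase panel screen, with PRKCN as the panel member.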
Series [33] addresses Cyclin-dependent kinase 7 (Homo sapiens, UniProt P50613). Type of series: functional.
Series [34] concerns the target Activin receptor type-1 (Homo sapiens, UniProt Q04771). As to the kind of experiment: Navigating the Kinome. Panel member name: ACVR1. Type of series: functional.
In series [35] the target is Tyrosine-protein kinase BTK (Homo sapiens, UniProt Q06187). Type of series: functional.
Series [36] deals with Cyclin-dependent kinase 9 (Homo sapiens, UniProt P50750). Type of series: functional.
Series [37] addresses Serine/threonine-protein kinase TBK1 (Homo sapiens, UniProt Q9UHD2). Nature of the series: Navigating the Kinome. Panel member name: TBK1. Type of series: functional.
Series [38] has as its target Dual specificity tyrosine-phosphorylation-regulated kinase 1A (Homo sapiens, UniProt Q13627). Type of series: functional.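 Further: measured against DYRK1A as one member of a broad kinome profiling panel.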
Series [39] concerns the target Protein kinase C theta type (Homo sapiens, UniProt Q04759). Nature of the series: Navigating the Kinome. Panel member name: PRKCQ. Type of series: functional.
The target of series [40] is Macrophage colony-stimulating factor 1 receptor (Homo sapiens, UniProt P07333). Type of series: functional.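 Further: value comes from the Navigating the Kinome screening panel, CSF1R member.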
The target of series [41] is Tyrosine-protein kinase ABL1 (Homo sapiens, UniProt P00519). Type of series: functional.
Series [42] addresses cAMP-dependent protein kinase catalytic subunit PRKX (Homo sapiens, UniProt P51817). Type of series: functional.
The target of series [43] is Tyrosine-protein kinase receptor TYRO3 (Homo sapiens, UniProt Q06418). Type of series: functional.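 Further: TYRO3 value obtained as one member of a kinome-wide profiling panel.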
The target of series [44] is Cyclin-dependent kinase 5 (Homo sapiens, UniProt Q00535). Type of series: functional.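 Further: CDK5 measured as one member of a kinase profiling panel.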
Series [45] concerns the target Inhibitor of nuclear factor kappa-B kinase subunit epsilon (Homo sapiens, UniProt Q14164). Nature of the series: Navigating the Kinome. Panel member name: IKBKE. Type of series: functional.
Series [46] concerns the target cAMP-dependent protein kinase catalytic subunit alpha (Homo sapiens, UniProt P17612). Type of series: functional.
The target of series [47] is Proto-oncogene tyrosine-protein kinase receptor Ret (Homo sapiens, UniProt P07949). Type of series: functional.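 Further: measured within a kinome-wide profiling panel, RET as the panel member.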
Series [48] has as its target Serine/threonine-protein kinase Chk1 (Homo sapiens, UniProt O14757). Type of series: functional.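 Further: measured as one member of a kinome-wide kinase profiling panel.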
Series [49] addresses Death-associated protein kinase 3 (Homo sapiens, UniProt O43293). Type of series: functional.
Series [50] has as its target Leucine-rich repeat serine/threonine-protein kinase 2 (Homo sapiens, UniProt Q5S007). Type of series: functional.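 Further: value from a broad kinome-wide panel profiling study in which LRRK2 was one of the kinases tested.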
Series [51] addresses Aurora kinase A (Homo sapiens, UniProt O14965). Type of series: functional.
Series [52] has as its target LIM domain kinase 1 (Homo sapiens, UniProt P53667). Nature of the series: Navigating the Kinome. Panel member name: LIMK1. Type of series: functional.
Series [53] has as its target Glycogen synthase kinase-3 beta (Homo sapiens, UniProt P49841). Type of series: functional.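 Further: value comes from a broad kinome profiling panel, with GSK3B as the panel member.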
Series [54] deals with Serine/threonine-protein kinase PAK 4 (Homo sapiens, UniProt O96013). Type of series: functional.
Series [55] addresses Leukocyte tyrosine kinase receptor (Homo sapiens, UniProt P29376). As to the kind of experiment: Navigating the Kinome. Panel member name: LTK. Type of series: functional.
Series [56] concerns the target Macrophage-stimulating protein receptor (Homo sapiens, UniProt Q04912). As to the kind of experiment: Navigating the Kinome. Panel member name: MST1R. Type of series: functional.
Series [57] deals with Mitogen-activated protein kinase 8 (Homo sapiens, UniProt P45983). Type of series: functional.
Series [58] concerns the target Vascular endothelial growth factor receptor 1 (Homo sapiens, UniProt P17948). Type of series: functional.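 Further: measured within a kinome-wide profiling panel, FLT1 as the panel member.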
The target in series [59] is Serine/threonine-protein kinase pim-1 (Homo sapiens, UniProt P11309). Type of series: functional.
For series [60], the target named is Mitogen-activated protein kinase kinase kinase kinase 2 (Homo sapiens, UniProt Q12851). Type of series: functional.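 Further: measured as one member of a kinome-wide kinase panel, with MAP4K2 as the panel entry.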
Series [61] addresses Phosphorylase b kinase gamma catalytic chain, liver/testis isoform (Homo sapiens, UniProt P15735). Type of series: functional.
For series [62], the target named is Serine/threonine-protein kinase pim-3 (Homo sapiens, UniProt Q86V86). Type of series: functional.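 Further: value obtained as one member of a broad kinase panel profiling effort.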

Sequence of Cyclin-dependent kinase 8 (P49336 whole entry): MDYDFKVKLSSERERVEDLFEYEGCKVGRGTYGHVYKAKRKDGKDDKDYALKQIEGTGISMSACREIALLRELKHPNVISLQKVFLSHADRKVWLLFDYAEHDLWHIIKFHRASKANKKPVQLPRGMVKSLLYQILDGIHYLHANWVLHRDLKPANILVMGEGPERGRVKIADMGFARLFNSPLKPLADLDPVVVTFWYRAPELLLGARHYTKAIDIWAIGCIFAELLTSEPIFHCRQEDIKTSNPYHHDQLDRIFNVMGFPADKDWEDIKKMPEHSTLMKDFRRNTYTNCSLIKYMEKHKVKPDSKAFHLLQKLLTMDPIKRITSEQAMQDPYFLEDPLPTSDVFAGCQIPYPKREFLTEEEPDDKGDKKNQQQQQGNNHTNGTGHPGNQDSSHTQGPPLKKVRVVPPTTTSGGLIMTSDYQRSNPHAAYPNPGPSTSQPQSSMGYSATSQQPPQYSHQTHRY

For the compound `CCCCSc1nnc(-c2cc3c(C(F)(F)F)nn(C)c3s2)n1C`, the AC50 was 20 µM (inconclusive) in [1] and “inconclusive” in series [3]. For the same compound, the results for the IC50 in series [2] and in series [4] were 51.6 µM (inactive) and > 99 µM (inactive), respectively.
For the compound `CC1CCCCC1N(C(=O)c1cc(C2CC2)on1)C1CCCCCC1` (configuration not stated), the EC50 in series [5] and in series [6] was > 50 µM (inactive) in each case.
In the case of `Cc1cc(=O)[nH]nc1-c1ccc(NC(=O)Nc2cccc(Cl)c2)cc1`, the Ki is > 6.31 µM (inactive) in [7]; 0.631 µM (active) in [8]; > 7.94 µM (inactive) in series [9]; > 6.31 µM (inactive) in series [10]; 0.631 µM (active) in series [11]; > 6.31 µM (inactive) in series [12]. Besides, the Ki is > 6.31 µM (inactive) in series [13]; 2.51 µM (active) in series [14]; 2 µM (active) in series [15]; > 15.8 µM (inactive) in series [16]; 3.16 µM (active) in series [17]; 1.58 µM (active) in series [18].
For the compound `Nc1cc(=O)[nH]n1-c1ccccn1`, the Ki in [19] was 12.6 µM (active); in [20], 63.1 µM (active); in series [21], 20 µM (active); in series [22], 79.4 µM (active); in series [23], 79.4 µM (active); in [24] it was 50.1 µM (active). For the same compound, the Ki in [25] was 15.8 µM (active); in series [8], 6.31 µM (active); in [26] it was 3.98 µM (active); in series [27], 3.16 µM (active); in [28], 50.1 µM (active); in [29], 31.6 µM (active). The inhibition constant (Ki) in series [30] is 31.6 µM (active); in [9] it was 15.8 µM (active); in [31], 15.8 µM (active); in series [32], 10 µM (active); in series [33], 20 µM (active); in series [34] it was 15.8 µM (active). For the same compound, the Ki was 31.6 µM (active) in series [35]; 3.98 µM (active) in series [36]; 25.1 µM (active) in series [11]; 50.1 µM (active) in [12]; 7.94 µM (active) in series [37]; 2 µM (active) in series [38]. Besides, the Ki in series [13] was 31.6 µM (active); in [39], 20 µM (active); in [40] it was 15.8 µM (active); in [41], 12.6 µM (active); in series [42], 10 µM (active); in series [14] it was 79.4 µM (active). The Ki is 7.94 µM (active) in [43]; 6.31 µM (active) in series [44]; 15.8 µM (active) in series [45]; 15.8 µM (active) in series [46]; 12.6 µM (active) in [47]; 0.501 µM (active) in series [15]. Further, the Ki is 2.51 µM (active) in [48]; 20 µM (active) in series [49]; 15.8 µM (active) in [16]; 6.31 µM (active) in [50]; 7.94 µM (active) in series [51]; 1.58 µM (active) in [52]. The Ki in [53] is 20 µM (active); in series [54], 63.1 µM (active); in series [17], 5.01 µM (active); in [55], 3.98 µM (active); in series [56] it was 50.1 µM (active); in [57] it was 31.6 µM (active). Also, the Ki in series [18] was 100 µM (active); in [58] it was 20 µM (active); in series [59] it was 50.1 µM (active); in [60] it was 10 µM (active).
For the compound `CCOC(=O)C1=c2sc(=Cc3cccs3)c(=O)n2C(N)=C(C#N)C1c1cccs1` (configuration not stated), the figures for the Ki in series [61] and in [62] were 5.01 µM (active) and 6.31 µM (active), respectively.

What is called AC50 is the concentration giving half of the maximal activity seen. Usually EC50 stands for the concentration that produces a half-maximal response. As usually defined, the Ki is a dissociation constant, usually derived from enzyme kinetics or from competition with a known ligand.
